From US11629127B2, “Drug-induced activation of the Reelin signaling system” (UNIVERSITY OF SOUTH FLORIDA, priority 2017, dated 2023)

Target: T1, ApoER2 (Homo sapiens, UniProt Q14114)
T1 construct: expressed in transfected cells; host or cells: HEK293 (named only through the non-transfected controls)
T1 sequence (Q14114 33-963) 1: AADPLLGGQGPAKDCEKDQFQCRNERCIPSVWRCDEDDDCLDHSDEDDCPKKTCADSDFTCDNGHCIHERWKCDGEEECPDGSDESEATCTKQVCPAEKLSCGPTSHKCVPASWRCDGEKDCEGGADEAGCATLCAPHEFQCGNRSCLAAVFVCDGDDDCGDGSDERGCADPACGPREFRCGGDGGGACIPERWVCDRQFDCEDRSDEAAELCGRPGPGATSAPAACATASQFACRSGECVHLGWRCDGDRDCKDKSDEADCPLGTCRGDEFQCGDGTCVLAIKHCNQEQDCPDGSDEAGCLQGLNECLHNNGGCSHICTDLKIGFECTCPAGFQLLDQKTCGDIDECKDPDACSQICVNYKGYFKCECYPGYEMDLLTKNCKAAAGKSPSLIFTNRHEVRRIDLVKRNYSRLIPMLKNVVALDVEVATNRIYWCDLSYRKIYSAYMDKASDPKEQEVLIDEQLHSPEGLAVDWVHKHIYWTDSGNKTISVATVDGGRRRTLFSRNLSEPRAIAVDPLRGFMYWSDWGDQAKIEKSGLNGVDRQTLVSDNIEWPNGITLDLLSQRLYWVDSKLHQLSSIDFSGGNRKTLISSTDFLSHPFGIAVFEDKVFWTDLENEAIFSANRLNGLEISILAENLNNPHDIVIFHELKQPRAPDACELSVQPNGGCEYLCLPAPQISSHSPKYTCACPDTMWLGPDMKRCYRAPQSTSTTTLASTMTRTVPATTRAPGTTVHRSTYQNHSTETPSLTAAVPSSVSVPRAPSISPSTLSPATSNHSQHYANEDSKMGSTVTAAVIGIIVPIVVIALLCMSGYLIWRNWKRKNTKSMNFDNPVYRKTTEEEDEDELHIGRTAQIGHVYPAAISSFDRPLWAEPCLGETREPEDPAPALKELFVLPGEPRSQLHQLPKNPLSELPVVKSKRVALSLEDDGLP
T1 sequence (Q14114 33-963) 2: T1 sequence (Q14114 33-963) 1
Test: ApoER2 luciferase assay (ApoER2 dimerization/clustering)
Assay type: cell-based
Settings: for changes in firefly/renilla ratios in the ApoER2 luciferase assay: 10 μM concentration, 60 minutes
Excerpt: FIG. 3 is a schematic of the ApoER2 Clustering Assay. The ApoER2 clustering assay uses the co-transfection of ApoER2 fusion proteins that express either the C- or N-terminal of the luciferase enzyme (A″) Upon Reelin fragment binding, receptor clustering results in active Luciferase and detectable fluorescence (B″). Controls included non-transfected Hek293 cells. Results are average +/−SEM; n=9-15 assays per fragment
Reelin is able to signal through ApoER2 and VLDLR by clustering the receptors. Receptor clustering results in Dab1 activation and is responsible for the modulation of LTP in wild-type acute hippocampal slices. The ApoER2 luciferase assay was used to measure ApoER2 dimerization. This system used an ApoER2-luciferase fusion protein in which ApoER2 was coupled with either the N- or C-terminus portion of luciferase. Upon receptor clustering, the N- and C-terminus portions of luciferase combined to produce a quantifiable fluorescent signal. As a control, all cells were transfected with a Renilla florescent protein that quantified the number of cells in the testing well. The ratio of luciferase florescence to Renilla florescence was used to determine the effect of small molecules. The ApoER2 luciferase assay (FIG. 3) was used to identify small molecules that mimic the actions of Reelin to activate the Reelin signaling system.
The CNS-Set Library was purchased from ChemBridge® and consisted of 35,000 small molecule compounds. The effects of each compound on Reelin signaling were tested in the absence or presence of purified Reeling with the ApoER2 luciferase assay in a 96-well plate. The assay was used to identify agonists of ApoER2 clustering and luciferase activity and was not particularly sensitive for identifying antagonists of receptor clustering.
Relact02 was tested for inducing dimerization of ApoER2 using luciferase as a reporter. Shown in FIG. 1A is a dose response curve assessing luciferase activity. Activity was determined by dimerization of two ApoER2 receptors fused with a luciferase enzyme reporter at the N- or C-terminal region. The control was a compound with structure similar to but different from Relact02. Shown in FIG. 1B is a time course for the luciferase assay using 5 μM of Relact02 or control molecule. Shown in FIG. 1C is a time course using 5 μM Relact02 alone (black bars) or in the presence of the Reelin protein (gray bars).

| changes in firefly/renilla ratios in the ApoER2 luciferase assay | activation / luciferase activity in the ApoER2 luciferase assay (compound screening, 96-well plate) | Structure (SMILES) |
| --- | --- | --- |
| did not show changes | – | CC(C)c1ccc(/C=C/C(=O)Nc2cccc(Cl)c2Cl)cc1 [(3)] |
| did not show changes | – | CC(C)c1ccc(/C=C/C(=O)Nc2ccc(Cl)cc2Cl)cc1 [(2)] |
| did not show changes | – | CC(C)c1ccc(/C=C/C(=O)Nc2ccc(I)cc2Cl)cc1 [(5)] |

Second part, the compound before the results:

| Structure (SMILES) | changes in firefly/renilla ratios in the ApoER2 luciferase assay | activation / luciferase activity in the ApoER2 luciferase assay (compound screening, 96-well plate) |
| --- | --- | --- |
| CC(C)c1ccc(/C=C/C(=O)Nc2ccc(Cl)cc2)cc1 [(4)] | did not show changes | – |
| CCOC(=O)c1cc(C(=O)NCc2ccccc2)c(=O)[nH]c1C [Compound E02, ethyl 5-((benzylamino)carbonyl)-2-methyl-6-oxo-1,6-dihydro-3-pyridinecarboxylate, reference compound] | – | no luciferase activity |
